Measured values: article PMC3705398 (Marine Drugs, 2013)
“Also recorded” adds a separate entry of the source. Like-named read-outs stand apart in the source and are kept apart here. Where a SMILES comes first, the peptide text is derived from it.

Columns and labels:
[1] = target: T1, CaV2.2 (N-type) calcium channels in rat superior cervical ganglion (SCG) neurons (Rattus norvegicus, UniProt Q02294); test: cell-based; format: cell-based, rat (Wistar)
T1 construct: SCG neurons are the most used native preparation to assess CaV2.2 (N-type) channel function; endogenous in cells
T1 sequence (Q02294 whole entry): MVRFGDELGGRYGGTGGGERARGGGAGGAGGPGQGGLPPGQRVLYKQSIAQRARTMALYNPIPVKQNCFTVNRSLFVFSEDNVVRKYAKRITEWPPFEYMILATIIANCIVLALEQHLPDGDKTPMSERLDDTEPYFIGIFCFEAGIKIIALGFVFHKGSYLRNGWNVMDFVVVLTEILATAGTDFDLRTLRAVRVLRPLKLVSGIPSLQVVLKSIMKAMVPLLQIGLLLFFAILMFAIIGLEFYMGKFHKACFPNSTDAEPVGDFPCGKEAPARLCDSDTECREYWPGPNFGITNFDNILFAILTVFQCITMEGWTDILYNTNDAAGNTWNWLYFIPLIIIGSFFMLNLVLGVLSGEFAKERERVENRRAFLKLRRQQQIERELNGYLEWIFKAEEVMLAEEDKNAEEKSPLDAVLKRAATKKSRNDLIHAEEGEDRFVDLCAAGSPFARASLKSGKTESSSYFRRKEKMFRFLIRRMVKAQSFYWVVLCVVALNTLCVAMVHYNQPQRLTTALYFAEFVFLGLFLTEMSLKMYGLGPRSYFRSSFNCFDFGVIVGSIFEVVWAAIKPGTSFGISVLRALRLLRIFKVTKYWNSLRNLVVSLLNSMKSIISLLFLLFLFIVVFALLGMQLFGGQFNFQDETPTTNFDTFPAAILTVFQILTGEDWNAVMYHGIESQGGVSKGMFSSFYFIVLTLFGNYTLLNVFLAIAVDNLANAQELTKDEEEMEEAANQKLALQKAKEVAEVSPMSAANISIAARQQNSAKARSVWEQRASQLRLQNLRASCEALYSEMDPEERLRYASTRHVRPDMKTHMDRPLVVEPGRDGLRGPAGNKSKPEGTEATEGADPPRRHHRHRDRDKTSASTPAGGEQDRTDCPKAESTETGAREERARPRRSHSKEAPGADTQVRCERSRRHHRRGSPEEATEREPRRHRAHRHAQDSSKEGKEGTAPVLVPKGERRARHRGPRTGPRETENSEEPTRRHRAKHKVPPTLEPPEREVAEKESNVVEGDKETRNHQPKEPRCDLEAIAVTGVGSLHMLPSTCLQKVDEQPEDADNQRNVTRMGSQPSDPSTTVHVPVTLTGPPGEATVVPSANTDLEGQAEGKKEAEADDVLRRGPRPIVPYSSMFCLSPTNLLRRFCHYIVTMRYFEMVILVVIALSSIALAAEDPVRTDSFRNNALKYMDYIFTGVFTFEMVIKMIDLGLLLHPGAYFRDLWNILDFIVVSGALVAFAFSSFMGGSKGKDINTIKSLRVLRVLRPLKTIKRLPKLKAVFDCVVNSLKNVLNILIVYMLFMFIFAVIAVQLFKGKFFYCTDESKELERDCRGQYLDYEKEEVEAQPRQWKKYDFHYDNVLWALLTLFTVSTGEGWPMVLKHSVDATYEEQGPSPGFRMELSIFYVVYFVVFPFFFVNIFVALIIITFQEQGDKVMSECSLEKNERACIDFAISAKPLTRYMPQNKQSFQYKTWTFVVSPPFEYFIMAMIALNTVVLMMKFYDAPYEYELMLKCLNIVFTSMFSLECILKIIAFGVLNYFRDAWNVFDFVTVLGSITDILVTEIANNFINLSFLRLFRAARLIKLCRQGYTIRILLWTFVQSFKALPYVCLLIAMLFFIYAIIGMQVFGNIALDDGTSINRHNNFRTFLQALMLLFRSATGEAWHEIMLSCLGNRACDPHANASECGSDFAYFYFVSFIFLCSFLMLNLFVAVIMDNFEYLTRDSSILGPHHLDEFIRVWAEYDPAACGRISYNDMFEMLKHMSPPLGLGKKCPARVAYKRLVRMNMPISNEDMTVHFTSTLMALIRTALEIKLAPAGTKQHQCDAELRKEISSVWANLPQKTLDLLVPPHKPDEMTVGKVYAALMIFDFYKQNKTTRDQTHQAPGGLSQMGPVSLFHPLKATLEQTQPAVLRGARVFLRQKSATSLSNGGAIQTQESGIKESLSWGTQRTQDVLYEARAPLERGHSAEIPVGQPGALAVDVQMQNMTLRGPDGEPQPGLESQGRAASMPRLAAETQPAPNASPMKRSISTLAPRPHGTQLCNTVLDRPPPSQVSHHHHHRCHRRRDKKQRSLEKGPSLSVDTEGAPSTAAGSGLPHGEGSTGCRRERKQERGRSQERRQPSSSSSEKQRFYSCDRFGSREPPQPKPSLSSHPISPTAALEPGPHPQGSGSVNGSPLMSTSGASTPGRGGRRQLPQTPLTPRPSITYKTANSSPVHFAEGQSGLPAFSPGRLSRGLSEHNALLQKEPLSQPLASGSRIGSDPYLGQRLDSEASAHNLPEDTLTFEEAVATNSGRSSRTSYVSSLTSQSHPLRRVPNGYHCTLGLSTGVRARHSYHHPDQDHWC
T1 sequence (P54290 25-1091 partner): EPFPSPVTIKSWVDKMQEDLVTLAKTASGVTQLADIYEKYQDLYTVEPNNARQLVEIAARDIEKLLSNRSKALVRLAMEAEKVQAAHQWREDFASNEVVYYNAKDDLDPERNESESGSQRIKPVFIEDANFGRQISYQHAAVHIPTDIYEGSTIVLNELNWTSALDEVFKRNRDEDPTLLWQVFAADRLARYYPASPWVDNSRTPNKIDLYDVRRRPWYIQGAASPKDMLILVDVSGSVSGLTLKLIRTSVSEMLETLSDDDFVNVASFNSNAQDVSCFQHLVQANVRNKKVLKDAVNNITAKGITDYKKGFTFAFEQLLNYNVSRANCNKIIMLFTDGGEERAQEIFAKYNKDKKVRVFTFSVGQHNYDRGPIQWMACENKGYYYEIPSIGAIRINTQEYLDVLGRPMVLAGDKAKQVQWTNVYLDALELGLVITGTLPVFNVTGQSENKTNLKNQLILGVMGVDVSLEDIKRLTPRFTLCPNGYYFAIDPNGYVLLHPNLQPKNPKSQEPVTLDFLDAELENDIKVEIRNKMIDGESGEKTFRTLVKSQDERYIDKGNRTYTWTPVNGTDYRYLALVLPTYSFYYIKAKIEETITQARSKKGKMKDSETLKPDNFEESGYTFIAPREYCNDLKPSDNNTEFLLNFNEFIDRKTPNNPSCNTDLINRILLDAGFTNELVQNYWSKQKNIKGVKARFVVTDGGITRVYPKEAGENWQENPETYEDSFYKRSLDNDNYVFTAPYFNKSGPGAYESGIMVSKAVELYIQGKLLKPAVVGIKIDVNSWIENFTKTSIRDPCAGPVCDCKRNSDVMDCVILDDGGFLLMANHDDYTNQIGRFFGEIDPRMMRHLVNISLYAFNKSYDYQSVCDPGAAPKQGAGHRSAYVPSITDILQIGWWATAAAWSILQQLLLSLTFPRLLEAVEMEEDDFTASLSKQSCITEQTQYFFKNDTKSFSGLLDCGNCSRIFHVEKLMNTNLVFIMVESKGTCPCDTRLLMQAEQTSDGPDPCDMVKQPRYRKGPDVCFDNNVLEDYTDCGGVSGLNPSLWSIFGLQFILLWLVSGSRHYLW
T1 sequence (P54287 whole entry partner): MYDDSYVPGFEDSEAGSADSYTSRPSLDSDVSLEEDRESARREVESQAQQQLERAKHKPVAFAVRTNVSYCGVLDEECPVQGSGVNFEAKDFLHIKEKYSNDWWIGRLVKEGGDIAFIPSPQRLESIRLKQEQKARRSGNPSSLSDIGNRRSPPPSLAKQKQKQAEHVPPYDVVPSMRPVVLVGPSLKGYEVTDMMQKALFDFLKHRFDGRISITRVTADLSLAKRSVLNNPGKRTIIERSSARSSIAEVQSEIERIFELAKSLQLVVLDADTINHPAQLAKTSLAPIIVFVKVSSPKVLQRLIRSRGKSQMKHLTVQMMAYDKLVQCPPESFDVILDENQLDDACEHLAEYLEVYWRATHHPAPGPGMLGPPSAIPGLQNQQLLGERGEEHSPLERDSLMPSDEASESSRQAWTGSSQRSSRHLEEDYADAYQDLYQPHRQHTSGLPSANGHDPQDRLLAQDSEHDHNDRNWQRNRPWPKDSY

[2] = test system: adult male ICR mice; conditions: mouse, in vivo
[3] = test system: adult male ICR mice; conditions: mouse, in vivo; remark: listed apart in the source
[4] = read-out: inhibition of calcium current

## CSCC[C@H](NC(=O)[C@H](CC(C)C)NC(=O)[C@H](CCCNC(=N)N)NC(=O)[C@H](CO)NC(=O)CNC(=O)[C@H](CCCCN)NC(=O)[C@H](CO)NC(=O)[C@H](CC(C)C)NC(=O)[C@H](CS)NC(=O)[C@H](Cc1ccccc1)NC(=O)[C@H](CCC(=O)O)NC(=O)[C@H](CCCCN)NC(=O)[C@@H](NC(=O)[C@H](CO)NC(=O)[C@H](CS)NC(=O)[C@H](CO)NC(=O)[C@H](CO)NC(=O)[C@H](CS)NC(=O)[C@H](CO)NC(=O)[C@H](CCC(N)=O)NC(=O)CNC(=O)[C@H](CCCCN)NC(=O)[C@@H](N)CS)[C@@H](C)O)C(=O)N[C@@H](Cc1ccc(O)cc1)C(=O)N[C@@H](CC(=O)O)C(=O)N[C@@H](CS)C(=O)N[C@@H](CS)C(=O)N[C@H](C(=O)NCC(=O)N[C@@H](CO)C(=O)N[C@@H](CS)C(=O)N[C@@H](CS)C(=O)NCC(=O)N[C@H](C(=O)N[C@@H](CCCCN)C(=O)N[C@H](C(=O)N[C@@H](C)C(=O)NCC(=O)N[C@H](C(=O)N[C@H](C(=O)O)[C@@H](C)O)C(C)C)[C@@H](C)O)C(C)C)[C@@H](C)O [RsXXIVA] (H-CKGQSCSSCSTKEFCLSKGSRLMYDCCTGSCCGVKTAGVT-OH)
[1]
  CaV2.2 current before restoration (under toxin): −442.9 ± 213.8 pA
  CaV2.2 current restored after toxin washout: −798.2 ± 313.4 pA
  Hill coefficient of dose-response for CaV2.2 current inhibition: 0.94
  affinity for CaV2.2 (in words): low affinity for CaV2.2
  reversibility of CaV2.2 current inhibition after washing: partially reversed after washing; also recorded: partially reversible; also recorded: the inhibition of the CaV2.2 channel current occurred reversibly
  time to inhibit CaV2.2 current: less than 4 s
[1]; [4]
  inhibition at 0.03 µM: 1.6 ± 0.1%
  inhibition at 0.3 µM: 12 ± 0.5%
  inhibition at 3 µM: 58.1 ± 2.6%
  inhibition at 24 µM: 97.9 ± 0.5%
[1]; read-out: percentage of inhibition compared to the block with 100 μM Cd2+
  inhibition at 3 µM: 58.1%
[2]
  analgesic effect in hot-plate test (in words) compared with control (PBS): analgesic effect in acute thermal pain at 30 and 45 min post-injection; also recorded: significantly better than the control group (p < 0.05)
[3]
  hind paw licking in formalin test (in words) compared with control group: significantly reduced the hind paw licking during both phase 1 (Figure 6A) and phase 2 (Figure 6B)
